Publication PMC10749220, “Development of a Rapid in vivo Assay to Evaluate the Efficacy of IRE1-specific Inhibitors of the Unfolded Protein Response Using Medaka Fish” (Cell Structure and Function, 2019)
pIC50: −log10 of the molar value.

Target: T1, IRE1α (Homo sapiens, UniProt O75460)
T1 construct: gene ERN1; His-tagged cytoplasmic region of IRE1α (IRE1-C), expressed in SF9 insect cells
Test: in vitro XBP1 mRNA cleavage assay with purified IRE1-C, urea-PAGE, SYBR Gold stain
Assay type: biochemical

T1 sequence (O75460 465-977 limits assumed): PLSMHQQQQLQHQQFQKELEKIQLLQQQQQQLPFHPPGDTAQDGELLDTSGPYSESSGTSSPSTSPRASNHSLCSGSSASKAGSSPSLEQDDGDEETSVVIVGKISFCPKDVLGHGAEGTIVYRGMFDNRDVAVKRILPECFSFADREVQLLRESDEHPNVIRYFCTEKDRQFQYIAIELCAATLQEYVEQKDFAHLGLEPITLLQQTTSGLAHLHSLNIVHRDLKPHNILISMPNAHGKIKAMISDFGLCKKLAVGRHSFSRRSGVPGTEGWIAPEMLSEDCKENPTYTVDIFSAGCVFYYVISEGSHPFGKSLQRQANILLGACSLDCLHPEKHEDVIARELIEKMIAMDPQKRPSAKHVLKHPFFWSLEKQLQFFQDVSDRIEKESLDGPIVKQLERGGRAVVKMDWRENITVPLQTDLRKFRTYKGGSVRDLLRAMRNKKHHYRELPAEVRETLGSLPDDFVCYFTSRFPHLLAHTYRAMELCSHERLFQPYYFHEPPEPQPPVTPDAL

pIC50 | Structure (SMILES)
7.13 | Cc1cc(=O)oc2c(C=O)c(O)ccc12 [4μ8C]
4.51 | Oc1ccc(/C=C/c2ccc(/C=C/c3ccc(O)cc3)c(Br)c2)cc1 [K114]
